The values that follow come from patent publication US5659023A, “Nucleotide analogues” (Gilead Sciences, Inc., priority 1995, dated 1997).

The test system of series [1] is human CMV. As to the kind of experiment: standard plaque inhibition assay, inhibitory effect against human CMV. The format is cell-based. The following applies: Human betaherpesvirus 5. As to the method:
(§1) Compounds made in the foregoing examples were assayed for inhibitory effect against human CMV using the standard plaque inhibition assay (Lurain, "J. Vir." 66:7146-7152 (1992)). The cells used for the toxicity assay were normal human dermal fibroblasts.

Series [2] can be described thus: toxicity assay in normal human dermal fibroblasts. The format is cell-based. Here is the method: as §1
The mark [3] stands for this setting: human CMV, plaque inhibition assay (Table 8), read-out: IC50.

Molecules are shown by their SMILES. Where two headings read alike, the source gives them in different places.

For `C[C@@H]1OC(P(=O)(O)O)=CC[C@@H]1n1ccc(N)nc1=O` [(65), 4-(cytosin-1-yl)-2,3,6-trideoxy-L-threo-hex-1-enopyranosylphosphonic acid], the IC50 in series [1] (setting [3]) was 300 µM. The compound also returned a cytotoxic concentration (CC50) in series [2] above 1000 µM.
The corresponding values for `Nc1ccn([C@@H]2CC[C@H](P(=O)(O)O)O[C@@H]2CO)c(=O)n1` [(32'), 4-(cytosin-1-yl)-β-D-threo-hexopyranosylphosphonic acid] are 80 µM and above 1000 µM.
For `Nc1ccn([C@@H]2C=C[C@H](P(=O)(O)O)O[C@@H]2CO)c(=O)n1` [(30), 4-(cytosin-1-yl)-2,3-dideoxy-β-D-threo-hex-2-enopyranosylphosphonic acid], half-maximal inhibition in series [1] (IC50) was put at 10 µM. The compound also showed a CC50 in series [2] above 1000 µM.
`C[C@@H]1O[C@H](P(=O)(O)O)C=C[C@@H]1n1ccc(N)nc1=O` [(64), 4-(cytosin-1-yl)-2,3,6-trideoxy-β-L-threo-hex-2-enopyranosylphosphonic acid]: the IC50 in series [1] (setting [3]) stood at 200 µM. Also, in series [2], the CC50 is above 1000 µM.
For the compound `Nc1ccn(C[C@@H](CO)OCP(=O)(O)O)c(=O)n1` [HPMPC, reference compound], the half-maximal inhibitory concentration (IC50) in series [1] (reference HPMPC, read-out: IC50) was found to be 0.5 µM. For the same compound, the CC50 in series [2] (reference HPMPC, read-out: CC50) turned out to be 200 µM.
As for `Nc1ccn([C@@H]2CC=C(P(=O)(O)O)O[C@@H]2CO)c(=O)n1` [(28'), 4-(cytosin-1-yl)-2,3-dideoxy-D-threo-hex-1-enopyranosyl phosphonic acid], the IC50 in series [1] (setting [3]) was 40 µM. This compound also registered a cytotoxic concentration (CC50) in series [2] above 1000 µM.

By IC50 is commonly meant the point on the concentration scale where inhibition reaches its midpoint. Broadly, the CC50 is the concentration at which the toxic effect on the cells reaches its halfway point.
